Results taken from patent publication US20160279263A1, “DRUG DELIVERY COMPOSITIONS AND METHODS TARGETING P-GLYCOPROTEIN” (CORNELL UNIVERSITY, priority 2012, published 2016).

Target: T1, P-gp (Homo sapiens, UniProt P08183)
T1 construct: expressed in transfected cells; host or cells: MDA-435/LCC6 MDR cells, with MDA-435/LCC6 WT as the P-gp-negative comparison
Assay: FACS accumulation/efflux in MDA-435/LCC6 MDR cells compared with WT cells
Type: cell-based
Source text: Before tests were initiated, P-gp expression in both MDR and WT cells was confirmed by Western blot, which confirmed the expression of P-gp in the MDR cells and the lack of expression in WT cells. The protein band in the MDR cells was visible around the molecular weight of P-gp, 170 kDa, which correlates to the reported molecular weight of the protein.
No differences in P-gp function were observed. […] Statistics represent the significance differences in WT/MDR accumulation ratio at a p-value of <0.01.

T1 sequence (P08183 whole entry): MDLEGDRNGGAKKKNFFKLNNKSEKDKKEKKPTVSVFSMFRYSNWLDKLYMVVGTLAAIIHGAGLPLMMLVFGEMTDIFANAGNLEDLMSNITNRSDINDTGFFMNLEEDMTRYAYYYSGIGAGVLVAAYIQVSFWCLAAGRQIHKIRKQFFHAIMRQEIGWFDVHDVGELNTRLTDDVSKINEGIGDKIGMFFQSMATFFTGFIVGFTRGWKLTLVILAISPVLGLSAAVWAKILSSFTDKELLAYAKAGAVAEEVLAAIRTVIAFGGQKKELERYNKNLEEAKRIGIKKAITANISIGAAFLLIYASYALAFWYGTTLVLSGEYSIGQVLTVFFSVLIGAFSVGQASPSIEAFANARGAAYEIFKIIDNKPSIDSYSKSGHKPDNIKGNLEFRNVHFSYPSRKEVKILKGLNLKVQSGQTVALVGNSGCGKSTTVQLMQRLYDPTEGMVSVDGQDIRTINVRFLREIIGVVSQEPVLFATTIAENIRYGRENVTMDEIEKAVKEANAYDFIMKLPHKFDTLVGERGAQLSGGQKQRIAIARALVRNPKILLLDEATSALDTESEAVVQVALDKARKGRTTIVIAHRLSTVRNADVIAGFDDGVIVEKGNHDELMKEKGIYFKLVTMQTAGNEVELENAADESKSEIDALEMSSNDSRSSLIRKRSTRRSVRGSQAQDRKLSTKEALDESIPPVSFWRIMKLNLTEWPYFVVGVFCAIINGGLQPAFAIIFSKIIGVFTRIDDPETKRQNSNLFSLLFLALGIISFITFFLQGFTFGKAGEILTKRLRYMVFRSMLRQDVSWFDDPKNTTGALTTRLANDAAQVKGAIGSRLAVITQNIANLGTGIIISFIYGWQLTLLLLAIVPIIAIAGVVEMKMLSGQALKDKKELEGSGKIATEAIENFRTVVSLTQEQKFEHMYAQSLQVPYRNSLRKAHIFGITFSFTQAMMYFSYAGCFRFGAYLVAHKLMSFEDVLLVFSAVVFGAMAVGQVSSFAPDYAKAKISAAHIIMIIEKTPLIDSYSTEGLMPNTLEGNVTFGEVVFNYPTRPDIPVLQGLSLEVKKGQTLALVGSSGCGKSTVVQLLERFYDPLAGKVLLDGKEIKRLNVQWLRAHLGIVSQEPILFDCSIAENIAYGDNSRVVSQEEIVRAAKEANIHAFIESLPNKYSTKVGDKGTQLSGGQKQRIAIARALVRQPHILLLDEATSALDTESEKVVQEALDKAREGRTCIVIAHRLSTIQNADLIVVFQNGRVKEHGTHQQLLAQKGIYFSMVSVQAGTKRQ

accumulation in MDR cells at 4° C. (4° C. relative to 37° C.): increase
Substance: Rhodamine 123 [free Rho123]
WT to MDR accumulation ratio with verapamil (5, 25, 50, 75 and 100 μM verapamil, mode fluorescence): increase in accumulation ratio with increasing verapamil concentration
